According to patent US8101632B2, “5-furopyridinone substituted indazoles” (Albany Molecular Research, Inc., priority 2007, dated 2012):
Structures can show the parent of a compound that is named as a salt.

Row | SMILES | melting point
1 | COc1cc(Cl)ccc1-c1cc2c(=O)n(-c3ccc4c(cnn4CCN4CCCC4)c3)ccc2o1.Cl | 240 to 242 °C
2 | Cl.O=c1c2cc(-c3ccccc3Cl)oc2ccn1-c1ccc2c(cnn2CCN2CCCC2)c1 | 102 to 104 °C
3 | Cl.O=c1c2cc(-c3ccc(Cl)cc3F)oc2ccn1-c1ccc2c(cnn2CCN2CCCC2)c1 | 256 to 258 °C
4 | Cl.O=c1c2cc(-c3ccc(C(F)(F)F)cc3)oc2ccn1-c1ccc2c(cnn2CCN2CCCC2)c1 | 252 to 254 °C
5 | Cl.O=c1c2cc(-c3ccccc3F)oc2ccn1-c1ccc2c(cnn2CCN2CCCC2)c1 | 264 to 266 °C
6 | Cl.O=c1c2cc(-c3ccc(F)cc3F)oc2ccn1-c1ccc2c(cnn2CCN2CCCC2)c1 | 256 to 258 °C
7 | Cc1ccc(-c2cc3c(=O)n(-c4ccc5c(cnn5CCN5CCCC5)c4)ccc3o2)nn1.Cl | 282 to 284 °C
8 | Cl.O=c1c2cc(-c3ccc(Cl)cc3)oc2ccn1-c1ccc2c(cnn2CCN2CCOCC2)c1 | 260 to 268 °C (dec.)
9 | Cl.O=c1c2cc(-c3ccc(Cl)cc3)oc2ccn1-c1ccc2c(cnn2CCN2CCNCC2)c1 | 298 to 300 °C (dec.)
10 | Cl.O=c1c2cc(-c3ccc(Cl)cc3)oc2ccn1-c1ccc2c(cnn2CCN2CC[C@@H](O)C2)c1 | 242 to 246 °C (dec.)
11 | Cl.O=c1c2cc(-c3ccc(Cl)cc3Cl)oc2ccn1-c1ccc2c(cnn2CCN2CCCC2)c1 | 258 to 260 °C
12 | O=c1c2cc(-c3ccccn3)oc2ccn1-c1ccc2c(cnn2CCN2CCCC2)c1 (as salt: hydrochloride) | 50 to 52 °C
13 | O=c1c2cc(-c3cccnc3)oc2ccn1-c1ccc2c(cnn2CCN2CCCC2)c1 (as salt: hydrochloride) [Example 22, 2(Pyridin-3-yl)-5-(1-(2-(pyrrolidin-1-yl)ethyl)-1H-indazol-5-yl)furo[3,2-c]pyridin-4(5H)-one dihydrochloride] | 188 to 190 °C
14 | O=c1c2cc(-c3ncccn3)oc2ccn1-c1ccc2c(cnn2CCN2CCCC2)c1 (as salt: hydrochloride) [Example 26, 2-(Pyrimidin-2-yl)-5-(1-(2-(pyrrolidin-1-yl)ethyl)-1H-indazol-5-yl)furo[3,2-c]pyridin-4(5H)-one Dihydrochloride] | 272 to 274 °C

More lines, now with the values ahead:

Row | melting point | SMILES
15 | 120 to 122 °C | Cl.N#Cc1cc(F)ccc1-c1cc2c(=O)n(-c3ccc4c(cnn4CCN4CCCC4)c3)ccc2o1
16 | 140 to 142 °C | Cl.O=c1c2cc(-c3ccc(F)cc3Cl)oc2ccn1-c1ccc2c(cnn2CCN2CCCC2)c1
17 | 218 to 220 °C | Cl.O=c1c2cc(-c3ccc(F)cc3)oc2ccn1-c1ccc2c(cnn2CCN2CCCC2)c1
18 | 268 to 270 °C | Cc1ccc(-c2cc3c(=O)n(-c4ccc5c(cnn5CCN5CCCC5)c4)ccc3o2)c(F)c1.Cl
19 | 262 to 264 °C | Cc1ccc(-c2cc3c(=O)n(-c4ccc5c(cnn5CCN5CCCC5)c4)ccc3o2)cc1.Cl
20 | 268 to 270 °C | O=c1c2cc(-c3ccc(Cl)cn3)oc2ccn1-c1ccc2c(cnn2CCN2CCCC2)c1 (as salt: hydrochloride) [Example 17, 2-(5-Chloropyridin-2-yl)-5-(1-(2-(pyrrolidin-1-yl)ethyl)-1H-indazol-5-yl)furo[3,2-c]pyridin-4(5H)-one dihydrochloride]
21 | 266 to 268 °C | O=c1c2cc(-c3ccc(F)cn3)oc2ccn1-c1ccc2c(cnn2CCN2CCCC2)c1 (as salt: hydrochloride) [Example 23, 2-(5-Fluoropyridin-2-yl)-5-(1-(2-(pyrrolidin-1-yl)ethyl)-1H-indazol-5-yl)furo[3,2-c]pyridin-4(5H)-one dihydrochloride]
